The test system of series [1] is LMH cells.
Another series is described as follows: in vitro. To be noted: chicken, Viability of LMH Cells (%) ± SD, MTT.
A further series deals with laboratory mice. To be noted: mouse, in vivo; cited from earlier work.
In series [2] the test system is LMH cells. To be noted: PrestoBlue; for Viability of LMH Cells (%) ±S.E.M.: 24 h.
The next series has as its system workers. Set-up: method as in ref 23 = [23]; 23. The MAK Collection for Occupational Health and Safety, Trimethylamine (MAK Value Documentation, 2004), Wiley Online Library Available online: http://onlinelibrary.wiley.com/doi/10.1002/3527600418. To be noted: cited from earlier work.

Where “and” joins values, the source holds several entries; their conditions need not be identical. Equal values may be shown once. Read-outs that look alike come from different tables or passages of the source.

Here are results for four molecules from article PMC5129256 (International Journal of Environmental Research and Public …, 2016).

In the case of `CCCC(=O)O` [Butyric acid], in the series on LMH cells [1], the “IC50 (%)” value is 0.32% and 0.11%. The cytotoxicity with LMH cells [1] (MTT, 0.5%, 72 h) is given as 92.4%. In addition, in the series with LMH cells [1] (MTT, 72 h exposure, concentrations above 0.0125%), the dose-dependent inhibition reached worked out at 92%. Further, in the series “in vitro” (LMH chicken liver hepatocellular carcinoma cells, 0.006%, 24 h), the viability (commonly a read-out of living cells in per cent, often relative to untreated cells) at 24 h, 0.006 % is 100 ± 0.7%. Also, the viability at 72 h, 0.006 % in “in vitro” (LMH chicken liver hepatocellular carcinoma cells, 0.006%, 72 h) was 98.2 ± 2.1%. Further, the viability at 24 h, 0.013 % in the series “in vitro” (LMH chicken liver hepatocellular carcinoma cells, 0.013%, 24 h) was found to be 100 ± 0.4%. For the same molecule, the viability at 72 h, 0.013 % in the series “in vitro” (LMH chicken liver hepatocellular carcinoma cells, 0.013%, 72 h) came to 95.7 ± 2.1%. Besides, the viability at 24 h, 0.025 % in the series “in vitro” (LMH chicken liver hepatocellular carcinoma cells, 0.025%, 24 h) turned out to be 100 ± 0.3%. Also, the viability at 72 h, 0.025 % in the series “in vitro” (LMH chicken liver hepatocellular carcinoma cells, 0.025%, 72 h) amounted to 86 ± 4.8%. Besides, the viability at 24 h, 0.063 % in “in vitro” (LMH chicken liver hepatocellular carcinoma cells, 0.063%, 24 h) came out at 68.9 ± 1.4%. Also, the viability at 72 h, 0.063 % in “in vitro” (LMH chicken liver hepatocellular carcinoma cells, 0.063%, 72 h) was found to be 66.5 ± 3.2%. Also, in “in vitro” (LMH chicken liver hepatocellular carcinoma cells, 0.125%, 24 h), the viability at 24 h, 0.125 % is 65 ± 0.8%. Besides, the viability at 72 h, 0.125 % in “in vitro” (LMH chicken liver hepatocellular carcinoma cells, 0.125%, 72 h) amounted to 46.4 ± 3.2%. In addition, the viability at 24 h, 0.25 % in the series “in vitro” (LMH chicken liver hepatocellular carcinoma cells, 0.25%, 24 h) was found to be 59.4 ± 1.3%. In addition, in “in vitro” (LMH chicken liver hepatocellular carcinoma cells, 0.25%, 72 h), the viability at 72 h, 0.25 % is 31.1 ± 2%. Moreover, the viability at 24 h, 0.5 % in the series “in vitro” (LMH chicken liver hepatocellular carcinoma cells, 0.5%, 24 h) amounted to 25.1 ± 0.7%. For the same molecule, the viability at 72 h, 0.5 % in the series “in vitro” (LMH chicken liver hepatocellular carcinoma cells, 0.5%, 72 h) came to 7.6 ± 0.7%. Also, the viability at 24 h, […] in the series “in vitro” (LMH chicken liver hepatocellular carcinoma cells, […], 24 h) was 89.3 ± 2%. In “in vitro” (LMH chicken liver hepatocellular carcinoma cells, […], 72 h), the viability at 72 h, […] amounted to 67.2 ± 4.9%.
`CNC` [Dimethylamine]: in the series with laboratory mice, the “RD50 (concentration which reduces the rate of respiration by 50%)” value was 70 mL/m^3. Further, in the series with LMH cells [1], the “IC50 (%)” value is recorded as 0.06%; the IC80 is 0.04% and 0.04 * %; the “Viability of LMH Cells (%) ± SD” value is reported as 20.5 ± 0.1 %; the cytotoxicity entry is listed as “above 80%”.
In the case of `c1ccc2[nH]ccc2c1` [Indole], in the series with LMH cells [1], the “cytotoxicity (in words)” value was “not cytotoxic”. Also, in the series on LMH cells [1] (MTT, 72 h exposure, from dose-response curves), the “IC50 (%)” value was found to be 0.06%. The molecule also showed a cytotoxicity with LMH cells [1] (chicken) of 39.7%. Also, the viability was found to be 88.6 ± 0.6% in the series “in vitro” (0.0004%, 24 h); 90.7 ± 1.3% in the series “in vitro” (0.0004%, 72 h); 95 ± 0.2% in “in vitro” (0.0008%, 24 h); 94.3 ± 2.4% in the series “in vitro” (0.0008%, 72 h); 97.4 ± 0.2% in “in vitro” (0.0016%, 24 h); 94.8 ± 2.1% in “in vitro” (0.0016%, 72 h). Moreover, the viability was 103 ± 0.4% in “in vitro” (0.0063%, 24 h); 109 ± 2.5% in the series “in vitro” (0.0063%, 72 h); 95.5 ± 0.8% in “in vitro” (0.0125%, 24 h); 103 ± 1.2% in the series “in vitro” (0.0125%, 72 h); 102.4 ± 0.2% in the series “in vitro” (0.025%, 24 h); 73.5 ± 2% in the series “in vitro” (0.025%, 72 h). Further, the viability amounted to 94.3 ± 0.6% in the series “in vitro” (0.05%, 24 h); 73 ± 1.7% in “in vitro” (0.05%, 72 h); 82.2 ± 0.2% in the series “in vitro” (0.1%, 24 h); 60.3 ± 1.6% in “in vitro” (0.1%, 72 h); 100 ± 0.4% in the series “in vitro” ([…], 24 h); 104 ± 1.9% in “in vitro” ([…], 72 h).
`CN(C)C` [Trimethylamine]: in the series with laboratory mice, the RD50 is reported as 61 mL/m^3. In addition, the cytotoxicity result with LMH cells [1] was “above 95%”. The “Viability of LMH Cells (%) ± SD” value with LMH cells [1] (MTT, 0.004%, 24 h) was found to be 95.5 ± 1.9%; in the series with LMH cells [1] (MTT, 0.004%, 48 h) it was 92.5 ± 5.5%; in the series with LMH cells [1] (MTT, 0.008%, 24 h) it was 100.1 ± 3.1%; in the series with LMH cells [1] (MTT, 0.008%, 48 h), 84.9 ± 8.1%; with LMH cells [1] (MTT, 0.016%, 24 h), 103.6 ± 2.2%; in the series on LMH cells [1] (MTT, 0.016%, 48 h) it was 72.8 ± 6.5 %. Besides, the “Viability of LMH Cells (%) ± SD” value in the series on LMH cells [1] (MTT, 0.063%, 24 h) was 69.7 ± 5.9 %; in the series on LMH cells [1] (MTT, 0.063%, 48 h), 2.8 ± 0.2 %; in the series with LMH cells [1] (MTT, 0.125%, 24 h), 8.6 ± 0.5 %; with LMH cells [1] (MTT, 0.125%, 48 h) it was 5.4 ± 0.3 %; in the series on LMH cells [1] (MTT, 0.25%, 24 h), 7.6 ± 0.3 %; in the series with LMH cells [1] (MTT, 0.25%, 48 h) it was 4.1 ± 0.3 %. Also, the “Viability of LMH Cells (%) ± SD” value in the series with LMH cells [1] (MTT, 0.5%, 24 h) worked out at 7.9 ± 0.2 %; with LMH cells [1] (MTT, 0.5%, 48 h) it was 3.8 ± 0.3 %; with LMH cells [1] (MTT, 1.0%, 24 h) it was 7.0 ± 0.1 %; in the series on LMH cells [1] (MTT, 1.0%, 48 h), 2.5 ± 0.3 %; in the series on LMH cells [1] (MTT, […], 24 h) it was 97.8 ± 1.8%; in the series on LMH cells [1] (MTT, […], 48 h), 61.7 ± 8.9 %. The “IC50 (%)” value in the series on LMH cells [1] (MTT, 24 h exposure, from dose-response curves) is 0.08%; in the series on LMH cells [1] (MTT, 48 h exposure, from dose-response curves) it was 0.04%; with LMH cells [2] (24 h exposure, from dose-response curves), 0.02%. The “Viability of LMH Cells (%) ±S.E.M.” value in the series with LMH cells [2] (0.004%) is 72.4 ± 5.4%; in the series on LMH cells [2] (0.008%), 54.3 ± 10.9%; in the series on LMH cells [2] (0.016%), 51.9 ± 2.9%; with LMH cells [2] (0.063%) it was 36.6 ± 2.4%; with LMH cells [2] (0.125%) it was 17.1 ± 2.3 %; in the series on LMH cells [2] (0.25%), 13.6 ± 2.3 %. Further, the “Viability of LMH Cells (%) ±S.E.M.” value in the series on LMH cells [2] (0.5%) came to 7.1 ± 0.4 %; in the series with LMH cells [2] (1.0%) it was 6.0 ± 0.3 %; with LMH cells [2] ([…]), 38.9 ± 9.6%. Also, the “toxic effects in workers” value in the series on workers (concentrations of 20 mL/m^3) is “irritant to the mucous membranes and the eyes”; with workers (mean exposure concentrations of 5 mL/m^3 for 8 h), “no toxic effects”.
